# Source: US7846483B2, “Cosmetic composition for skin application suitable for relaxing expression wrinkles” (Labo Cosprophar AG, priority 2004, dated 2010)
# Where no end group is shown, it is not given here.
# Experiments:
# [1] = system: endoplasmic reticulum vesicles; experiment: Outflow of calcium ions from endoplasmic reticulum vesicles versus external magnesium ion concentration; type: biochemical; details: with an increase in the concentration of Mg++ in the medium (FIG. 2)
# Description: In particular, the dependence of the flow at the outlet of the calcium ions on the external concentration of magnesium ions was evaluated. The results obtained are shown in the graph of FIG. 2.
# [2] = system: POMC gene; experiment: Gene expression of the POMC gene in a culture of human keratinocytes; type: cell-based; details: human keratinocytes incubated for 24 h
# [3] = system: CGRP; experiment: CGRP synthesis in a culture of neurons; type: cell-based; details: neurons incubated for 6 hours
# [4] = system: nerve-muscle co-culture model; experiment: Contraction frequency in a nerve-muscle co-culture model with acetyl Dipeptide-1 cetyl ester; type: cell-based; details: for contraction inhibition: 0.9%
# Description: The decontracting efficacy was evaluated, of dipeptide N-acetyl tyrosyl-arginyl (Dipeptide) hexadecyl ester, dissolved in a hydro-glycol excipients.
# • 1. […] Evaluation of the contraction frequency in a nerve-muscle co-culture model in incubation with acetyl Dipeptide-1 cetyl ester at 0.9% for 5 minutes and 2 h.
# [5] = system: nerve-muscle co-culture model; experiment: In vitro efficacy test on pentapeptide: contraction frequency in a nerve-muscle co-culture model; type: cell-based; details: 0.3% by weight, contractions counted over 30 sec
# Description: In vitro efficacy test on pentapeptide
# The frequency of the contractions was determined in a nerve-muscle co-culture model to evaluate the decontracting capacity of pentapeptide gly-pro-arg-pro -ala-NH2 SEQ ID NO 1, used at a concentration of 0.3% by weight.
substance,measurement,setting,value
Magnesium ions,quantity of Calcium ions released from the endoplasmic reticulum vesicles,[1],decreases
N-acetyl tyrosyl-arginyl (Dipeptide) hexadecyl ester [acetyl Dipeptide-1 cetyl ester],over-expression of the POMC gene with respect to the reference,[2]; 0.9%,> +29%
same,over-expression of the POMC gene with respect to the reference,[2]; 1.9%,> +63%
same,reduction in the CGRP synthesis with respect to the reference,[3]; 2.8%,−0%
same,reduction in the CGRP synthesis with respect to the reference,[3]; 4.7%,−50%
same,contraction inhibition,"[4]; after 5 minutes of incubation, 1 fiber out of 3",higher than 20%
same,contraction inhibition,"[4]; after 2 hours of incubation, all 3 fibers",100%
gly-pro-arg-pro-ala-NH2 (GPRPA-NH2) [pentapeptide],average reduction in the contraction frequency,[5]; after 1 minute of incubation,69.75%
same,average reduction in the contraction frequency,[5]; after 2 hours of incubation,60.75%
α-bungarotoxin [reference compound],"DECREASE IN THE MUSCULAR FIBER CONTRACTION, Positive reference (α-bungarotoxin)",[4],Blockage
